Results reported in patent US5403717A, “Diagnosis of premalignant or malignant conditions of human secretory epithelia” (Pacific Northwest Research, priority 1992, dated 1995).

Tests used:
[1] = biological target: T1, β1→3N-acetylglucosaminyltransferase (Homo sapiens, UniProt Q9BYG0); assay: β1→3N-acetylglucosaminyltransferase assay with Triton X-100 solubilized enzyme from SW403 cells; format: biochemical; details: for effect of removal from the reaction mixture on activity (in words): component removed from complete system; for β1-3N-acetylglucosaminyltransferase activity, named component omitted from complete system: component removed; for Effect of detergents on β1-3N-acetylglucosaminyltransferase activity: detergent added at 0.3% final concentration, 0.05% Triton X-100 present from enzyme, acceptor lactosylceramide; for fold less activity on substitution of Mn++: 10 mM final concentration, compared to Mn++; for β1-3N-acetylglucosaminyltransferase activity, Mn++ replaced by the named agent: plus agent at 10 mM final
T1 construct: solubilized from a 27,000 x g membrane pellet of SW403 cells by 0.2% Triton X-100; endogenous in cells; host or cells: SW403 cells (human colonic adenocarcinoma), 0.2% Triton X-100 soluble membrane fraction
T1 sequence (Q9BYG0 1-378): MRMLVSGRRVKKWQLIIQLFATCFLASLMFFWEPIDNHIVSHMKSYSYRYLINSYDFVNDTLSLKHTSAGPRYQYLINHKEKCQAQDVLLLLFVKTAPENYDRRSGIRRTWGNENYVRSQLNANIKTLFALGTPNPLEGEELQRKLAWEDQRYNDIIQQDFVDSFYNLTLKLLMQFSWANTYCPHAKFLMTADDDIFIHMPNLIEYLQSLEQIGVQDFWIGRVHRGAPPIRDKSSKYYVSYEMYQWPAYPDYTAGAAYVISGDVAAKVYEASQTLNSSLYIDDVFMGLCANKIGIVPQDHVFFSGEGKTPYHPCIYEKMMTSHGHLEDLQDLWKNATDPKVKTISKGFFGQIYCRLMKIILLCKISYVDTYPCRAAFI
Protocol: (§1) The labelled product was extracted into the lower phase of a Folch extraction (J. Biol. Chem., 191, 819-831), dried by an N2 stream, and dissolved in 20 μl of CHCl3 :CH3 OH (2:1). An aliquot, 10 μl was spotted on a HPTLC plate (Merck) and developed in a solvent composed of CHCl3 :CH3 OH:H2 O (60:35:8). The labelled glycolipids were located by autoradiography, scraped, and quantitated in a liquid scintillation counter.

[2] = test system: β1→3N-acetylglucosaminyltransferase; assay: as above; format: biochemical, human; details: for Substrate specificity of β1-3N-acetylglucosaminyltransferase: transfer of GlcNAc to acceptor: 40 ug of each acceptor, ND = none detected
Protocol: as §1

[3] = biological target: T2, β1-3galactosyltransferase (Homo sapiens, UniProt Q9Y2C3); assay: Effect of α-lactalbumin on β1-3galactosyltransferase of a 0.2% Triton X-100 soluble fraction from SW403 cells; format: biochemical; details: 30 μg acceptor, 0.2 mg solubilized protein
T2 construct: catalyzed by a 0.2% Triton X-100 soluble fraction from SW403 cells; endogenous in cells; host or cells: SW403 cells (human colonic adenocarcinoma), 0.2% Triton X-100 soluble fraction
T2 sequence (Q9Y2C3 1-310): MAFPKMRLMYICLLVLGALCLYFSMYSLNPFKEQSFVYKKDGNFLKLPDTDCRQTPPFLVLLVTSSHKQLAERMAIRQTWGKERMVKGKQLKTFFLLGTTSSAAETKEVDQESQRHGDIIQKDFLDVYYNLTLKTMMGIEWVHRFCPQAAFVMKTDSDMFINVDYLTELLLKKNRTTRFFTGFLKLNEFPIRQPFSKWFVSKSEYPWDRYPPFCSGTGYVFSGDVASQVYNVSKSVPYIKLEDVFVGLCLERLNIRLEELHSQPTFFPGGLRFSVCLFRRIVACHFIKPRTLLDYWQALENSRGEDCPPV
Protocol: The effect of increasing α-lactalbumin on the transfer of galactose to glucosylceramide, +--+, Lc3 forming nLc4, o--o, and Lc3 forming Lc4, x--x, catalyzed by a 0.2% Triton X-100 soluble fraction from SW403 cells is shown. The assays were conducted in the presence of 30 μg of the indicated acceptor and 0.2 mg of solubilized protein.
Synthesis of type 1 and 2 chain structures Lc4 and nLc4 are catalyzed by β1-3 and β1-4galactosyltransferases, respectively, competing for Lc3. A β1-4-galactosyltransferase responsible for transfer of Gal to Lc3 in human plasma was previously reported to be lactose synthetase A protein which was also involved in the synthesis of lactosylceramide (J. Biochem., 92, 1123-1127 (1982)). The effect of increasing α-lactalbumin on the β1-4galactosyltransferase activity in SW403 cells is seen with glucosylceramide and Lc3 as acceptors.
The reaction mixtures contained 2.5 μmol HEPES buffer, pH 7.0, 20 μg Lc3, 10 μg deoxycholate, 1 μmol MnCI2, 0.5 μmol CDPcholine, 0.5 μmol galactonolactone, 15 nmol UDP[^14 C]galactose (30,000 cpm/nmol), and 0.1 mg protein in a total volume of 0.1 ml. […] The incorporation of [^14 C]galactose into glycolipid was determined as described above.

`C[N+](C)(C)CCOP(=O)(O)OP(=O)([O-])OC[C@H]1O[C@@H](n2ccc(N)nc2=O)[C@H](O)[C@@H]1O` [CDPcholine] was tested, and the “effect of removal from the reaction mixture on activity (in words)” value [1] was “significant loss of activity” and the “β1-3N-acetylglucosaminyltransferase activity, named component omitted from complete system” value ([1]; complete system gives 76.0) was 65.3 pmol/hr/mg protein.

With `C[C@H](CCC(=O)NCCC[N+](C)(C)CC(O)CS(=O)(=O)[O-])[C@H]1CC[C@H]2[C@@H]3[C@H](O)C[C@@H]4C[C@H](O)CC[C@]4(C)[C@H]3C[C@H](O)[C@]12C` (some centres unmarked) [CHAPSO] the “Effect of detergents on β1-3N-acetylglucosaminyltransferase activity” value (from here on “Effect of detergents”) [1] was 54.5 pmol/hr/mg protein.

`[Ca+2]` [Ca^++] was tested, and the “fold less activity on substitution of Mn++” value [1] was 13 fold and the “β1-3N-acetylglucosaminyltransferase activity, Mn++ replaced by the named agent” value ([1]; complete system gives 76.0) was 6.0 pmol/hr/mg protein.

For `C[C@H](CCC(=O)O)[C@H]1CC[C@H]2[C@@H]3CC[C@@H]4C[C@H](O)CC[C@]4(C)[C@H]3C[C@H](O)[C@]12C` [Deoxycholate], the “Effect of detergents” value [1] was 67.5 pmol/hr/mg protein.

`CC(=O)N[C@H]1C(O)O[C@H](CO)[C@@H](O)[C@@H]1O` (some centres unmarked) [GlcNAc] was tested, and the “β1-3N-acetylglucosaminyltransferase activity, GlcNAc added to complete system” value ([1]; GlcNAc 10 mM final, complete system gives 76.0) was 80.3 pmol/hr/mg protein and the “effect on transfer of GlcNAc to lactosylceramide (in words)” value ([1]; agent at 10 mM final concentration (EDTA in place of Mn++; GlcNAc added)) was “only slight stimulation of the activity”.

With `[Mg+2]` [Mg^++] the “fold less activity on substitution of Mn++” value [1] was 21 fold and the “β1-3N-acetylglucosaminyltransferase activity, Mn++ replaced by the named agent” value ([1]; complete system gives 76.0) was 3.6 pmol/hr/mg protein.

In the case of Lactotetraosylceramide [Lc4], the “Substrate specificity of β1-3N-acetylglucosaminyltransferase: transfer of GlcNAc to acceptor” value [2] is reported as 27 pmol/hr/mg protein and the “transfer of GlcNAc to acceptor (in words)” value ([2]; SW403 cell enzyme, lacto-series glycolipid acceptors) is reported as “detectable but is much lower”.

In the case of Triton X-100, the “Effect of detergents” value [1] is reported as 67.9 pmol/hr/mg protein.

lactosylceramide was tested, and the “effect of removal from the reaction mixture on activity (in words)” value [1] was “greatly diminished the activity”, the “β1-3N-acetylglucosaminyltransferase activity, named component omitted from complete system” value ([1]; complete system gives 76.0) was 8.3 pmol/hr/mg protein and the “Substrate specificity of β1-3N-acetylglucosaminyltransferase: transfer of GlcNAc to acceptor” value [2] was 76 pmol/hr/mg protein.

B1: α-lactalbumin: protein modifier of lactose synthetase A protein (β1-4galactosyltransferase) (protein, UniProt P00709 20-142, looked up)
Alpha-lactalbumin: KQFTKCELSQLLKDIDGYGGIALPELICTMFHTSGYDTQAIVENNESTEYGLFQISNKLWCKSSQVPQSRNICDISCDKFLDDDITDDIMCAKKILDIKGIDYWLAHKALCTEKLEQWLCEKL
B1 was tested, and the “effect of α-lactalbumin on β1-3galactosyltransferase with Lc3 as acceptor (forming Lc4)” value [3] was “Slight activation”.
